Consider two molecules from PMC7727793, “Aggregation Behavior, Antibacterial Activity and Biocompatibility of Catanionic Assemblies Based on Amino Acid-Derived Surfactants” (International Journal of Molecular Sciences, 2020).

On the set-up of data set [1]: method as in PMID 17319702. The settings on record: cited from earlier work.
Data set [2] is classed as physicochemical. The procedure: To check whether there was a pKa shift, we titrated the surfactant at a concentration below the CMC. The titration curve is shown in Supplementary Figure S1, where 10 mL of 1.5 mM surfactant was titrated with 3 mM NaOH.
The titration was followed using a glass electrode Orion coupled with an Orion Versastar reader (Thermo Scientific). […] 16% carbonation was determined. using Equation (1), which is derived making use of the charge and mass balances together with the acid constants of H2CO3, pK1CO2 = 6.35, pK2CO2 = 10.25 and water dissociation constant pKw = 14. (1) V = −V0Ca10^pKa−pH/1+10^pKa−pH−V0Ca+V0(1/10^pH−10^pH+pKw)/cb(1−α(1−1/1+10^pH+pK1CO2+10^2pH+pK2CO2))+(1/10^pH−10^pH+pKw) where V0 is the titrated solution initial volume, L is concentration, pKa is the searched acid constant, pkw is the minus logarithm of the water dissociation constant, Cb is the titrant concentration, α is the fraction of carbonated titrant, pK1CO2 is the first dissociation constant of CO2 and pK2CO2 is the second dissociation constant of CO2.

[3] abbreviates: 10 mM NaCl CO2 saturated solution.

As to `CCCCCCCCCCCCCC(=O)O` [Sodium myristate, sodium myristate], in data set [1] (setting [3]), the “Concentration at which surface tension stabilizes” value is recorded as “around 0.3 mM” and the Limiting surface tension result was “about 25 mNm^−1”. Further, the “Surface tension at CMC” value in data set [1] (basic conditions) is listed as “about 40 mNm^−1”. Moreover, the CMC in data set [1] (basic media) is on record as 3 mM.

Regarding “N(π),N(τ)-bis(methyl)-L-Histidine tetradecyl amide [DMHNHC14]”, in data set [2], the pKa was 5.7-5.9; the “pKa calculated from the concentration and the initial solution pH” value is on record as 5.4; the “pKa shift versus literature value for the histidine secondary amine” value was “about 3.3 units”.
